Measured values reported in patent publication US5622839A (ZymoGenetics, Inc., priority 1995, dated 1997).
pEC50: −log10 of the molar value.

How the values were obtained:
[1] = biological target: T1, human calcitonin receptor (Homo sapiens, UniProt P30988); assay: [Ca2+]i response of BHK cells expressing cloned calcitonin receptor to calcitonin and extracellular calcium (fura-2); type: cell-based; conditions: for average peak [Ca2+]i response vs receptor number: each cell line expressing the calcitonin receptor
T1 construct: Hollex encoded a protein of 474 amino acids; expressed in transfected cells; host or cells: BHK 570 / BHK/KZ10-20-48 (baby hamster kidney) stably transfected with pHollex
T1 sequence (P30988 25-474): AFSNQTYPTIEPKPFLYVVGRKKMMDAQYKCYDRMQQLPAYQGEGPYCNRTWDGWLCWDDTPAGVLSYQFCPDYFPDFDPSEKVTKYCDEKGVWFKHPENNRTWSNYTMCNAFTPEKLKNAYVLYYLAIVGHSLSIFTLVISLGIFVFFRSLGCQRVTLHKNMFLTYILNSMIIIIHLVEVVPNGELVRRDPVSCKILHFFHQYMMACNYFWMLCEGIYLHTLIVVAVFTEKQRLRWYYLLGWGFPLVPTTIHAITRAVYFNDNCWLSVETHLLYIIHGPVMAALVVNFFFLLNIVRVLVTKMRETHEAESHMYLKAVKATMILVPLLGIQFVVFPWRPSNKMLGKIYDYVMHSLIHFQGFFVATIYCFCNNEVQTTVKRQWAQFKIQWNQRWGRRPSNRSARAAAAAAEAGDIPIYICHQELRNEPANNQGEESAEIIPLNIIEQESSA
Description: (§1) BHK cells expressing the cloned calcitonin receptor were assayed to determine their response to extracellular calcium. Cells were washed three times with a buffer (140 mM NaCl, 5 mM KCl, 0.5 mM MgCl2, 0.5 mM CaCl2 (concentration varied in some experiments), 10 mM glucose, 10 mM HEPES, pH 7.4) made using high purity salts (Aldrich, Milwaukee, Wis.) and sterile water (Baxter, McGaw Park, Ill.). Cells were loaded with fura-2 AM (Molecular Probes Inc.) (10 μg/ml) for 30 minutes essentially as described above, then washed an additional three times. Slides were mounted at room temperature on an inverted microscope (EPIPHOT, Nikon), and a field of cells (typically 20-30 cells) was located using a 40× Nikon fluor objective. The ratio of fura-2 emission at excitation wavelengths of 340 and 380 nm was recorded every 5 seconds. Individual cells were analyzed on a computer workstation (Sun Microsystems) using a software system designed for ratio imaging (Inovision). The concentration of calcium chloride in buffers was determined by comparison to calcium standards on a calcium analyzer (Nova Biomedical Corp. Waltham, Mass.). All experiments were reproduced three to eight times. Fura-2 ratio 340 nm to 380 nm values (R) were converted to [Ca^2+ ]i concentrations after calibration of the instrument using the formula: calcium (nm)=2240[R-0.3)/(20-R)]. Basal [Ca^2+ ]i concentrations were typically 80-150 nm. The peak fura-2 ratios 340/380 of individual cells exposed to 20 nm salmon calcitonin followed by 25 mM calcium chloride were averaged for some experiments and converted to [Ca^2+ ]i concentrations. Standard error was calculated at a 99% level using a Z score of 2.58 (n>30).

Control BHK cell lines = assay: [Ca2+]i response of control (calcitonin receptor-negative) BHK cells to extracellular calcium; type: cell-based, baby hamster
Description: as §1, with “Fura-2 ratio 340 nm to 380 nm values (R) were converted to [Ca^2+ ]i concentrations after calibration of the instrument using the formula: calcium (nm)=2240[R-0.3)/(20-R)]. Basal [Ca^2+ ]i concentrations were typically 80-150 nm. The peak fura-2 ratios 340/380 of individual cells exposed to 20 nm salmon calcitonin followed by 25 mM calcium chloride were averaged for some experiments and converted to [Ca^2+ ]i concentrations.” left out

bone resorption = conditions: patients given long term treatment; Azria 1989; cited from earlier work
[2] = biological target: T1, human calcitonin receptor; assay: Intracellular calcium response of Hollex1/Hollex2 cells (fura-2 imaging); type: cell-based
BHK/Zem228R = assay: Binding/competition assay with BHK/Zem228R cells (negative control); design: species or system baby hamster
Description: A pool of transfectants expressing the plaex 1 was tested for receptor-mediated binding to calcitonin using a competition assay. Hollex1 was used as a positive control and BHK cells transfected with Zem228R were used as a negative control.
The cells were plated at a density of 1×10^5 cells/well in a 24-well cell culture dish and allowed to grow for 48 hours at 37° C. and 5% CO2 in growth medium (described in previous examples). The cells were rinsed in binding medium as described in Example IIE. Three hundred microliters of hot binding medium containing 10 nM hCT and 5 μCi/ml ^125 I hCT. Cold competition was achieved by adding unlabelled hCT to a final concentration of 1 μM were added to appropriate wells. The cells were incubated 1.5 hours at room temperature. Unincorporated radioactivity was removed by three washes with PBS. Five hundred microliters of 1N NaOH was added to each well to solublize the cells. Each sample was counted on a gamma counter.

[3] = 25 mM extracellular calcium chloride, about 700,000 receptors/cell
[4] = cell lines expressing 100,000 and 150,000 receptors/cell

With [Cl-].[K+] [KCl] the “[Ca2+]i response to 73 mM KCl” value ([1]; instead of CaCl2, about 700,000 receptors/cell) was “no effect”.

With [Ca+2].[Cl-].[Cl-] [calcium chloride] the “response to extracellular calcium” value (Control BHK cell lines; Control BHK cell lines) was “no response”, the “sensitivity to changes in extracellular calcium” value (Control BHK cell lines; three calcitonin receptor-negative BHK cell lines) was “no sensitivity” and the “magnitude of [Ca2+]i response relative to that induced by calcitonin” value [1, 3] was “comparable to that induced by calcitonin”. The “time for response to return to an elevated basal level” value [1, 3] was “about 20 minutes”, the “effect of calcitonin pretreatment on magnitude of response to extracellular calcium” value ([1]; 25 mM, about 700,000 receptors/cell, p<0.01) was “not significantly altered” and the “concentration of maximum response” value ([1]; 700,000 receptors/cell) was “approximately 14 mM”. For the same molecule, the pEC50 ([1]; 700,000 receptors/cell, double reciprocal plot, read-out: effective concentration for half-maximal response) was 2.00 to 2.10, the “smallest increase in extracellular calcium giving a significant response” value ([1]; 700,000 receptors/cell, increase over basal (1.3 mM)) was 2 mM and the “[Ca2+]i response to millimolar increases in extracellular calcium” value ([1]; BHK cells expressing recombinant calcitonin receptor) was “rapid and sustained elevation in [Ca^2+ ]i”. The “[Ca2+]i response to 25 mM extracellular calcium for two minutes followed by continuous wash” value ([1]; about 700,000 receptors/cell) was “rapid and transient increase in [Ca^2+ ]i”, the “[Ca2+]i response to 25 mM extracellular calcium chloride” value ([1]; about 700,000 receptors/cell, with or without calcitonin pretreatment) was “rapid and sustained increase in [Ca2+ ]i” and the “[Ca2+]i response” value [1, 4] was “increases in [Ca^2+ ]i”. For the same molecule, the “average peak [Ca2+]i response vs receptor number” value [1] was “proportional to the average number of receptors per cell”.

For calcitonin, the “resistance cases not accompanied with antibody formation” value (bone resorption) is given as “approximately 50%”, the “cells with a calcium response” value ([2]; Hollex1 cells) is given as 30-70% and the “cells with a calcium response” value ([2]; Hollex2 cells) is given as 1-5%. The “[Ca2+]i response” value [1, 4] was “increases in [Ca^2+ ]i”, the “effect of calcitonin pretreatment on response to extracellular calcium” value [1, 4] was “marked potentiation” and the “average peak [Ca2+]i response vs receptor number” value [1] was “proportional to the average number of receptors per cell”.

For “human calcitonin: human calcitonin (hCT), natural peptide hormone ligand of the calcitonin receptor”, the hot (BHK/Zem228R; 10 nM hCT and 5 μCi/ml 125I hCT) was 147 cpm and the hot/cold (BHK/Zem228R; plus unlabelled hCT 1 μM) was 105 cpm.
